Key:
[1] = system: Mouse TCRP1A CD8+ T cells; experiment: CD107 cytotoxicity assay (degranulation assay), mouse T cells; format: cell-based; conditions: 16 hours
Protocol: Mouse TCRP1A CD8^+ T cells: P1A-specific (TCRP1A) CD8^+ T cells were isolated from spleens and lymph nodes of TCRP1A mice using anti-mouse CD8a (Ly-2) MicroBeads (Miltenyi Biotec).
CD107 cytotoxicity assay (Degranulation assay): TCRP1A CD8^+ T cells were plated at 50,000 cells per well in a 96 U plate with different concentrations of guanabenz and incubated at 37° C. overnight prior to their use in the assay on the next day. On the day of the assay, the culture supernatant was removed from the cells and the cells were washed once with complete medium to remove the drug. The target cells L1210-P1A-B7.1 were added to the wells at a ratio of 1:1. Control wells containing either only T cells or target cells were also included for each plate. CD107a-APC was added to each well at the same time as addition of the target cells. The plate was then incubated at 37° C. for 90 minutes. At the end of the incubation period the cells were harvested and washed once with PBS. They were stained with anti-mouse CD8-Bv421 antibody for 15 minutes. The cells were then washed and resuspended in PBS and analyzed using FACS Fortessa flow cytometer. Human CD8^+ T cell degranulation was evaluated in a similar way. To induce CD8^+ T cell degranulation, T2 cells loaded with synthetic WT1126-134 peptide (10^6 T2 cells were incubated for 1 hour in 200 μL Optimem medium with 100 μmol/L synthetic peptide at 37° C.) were used as target cells.
(§1) T cells were incubated with guanabenz (10, 20, or 40 μM) for 16 h to 24 h as indicated. Mice received a daily intra-peritoneal injection of guanabenz (5 mg/kg) or vehicle (PBS) from the day of randomization (and the day of ACT when applicable) until the day of sacrifice.
CD107 cytotoxicity assay (Degranulation assay): the assay was carried out as described hereinabove (see Example 1) with different 20 μM guanabenz or different concentrations of alprenolol or sunitinib, as indicated.
T cells were incubated with 20 μM guanabenz for 16 h as indicated.
T cells were incubated with alprenolol (5 or 20 μM) for 16 h as indicated. […]

[2] = system: Mouse TCRP1A CD8+ T cells; experiment: IFNγ secretion assay (ELISA), mouse T cells; format: cell-based; conditions: guanabenz 10, 20 or 40 μM, 16 h to 24 h, co-culture with L1210-P1A-B7.1 target cells; FIG. 1B
Protocol: Mouse TCRP1A CD8^+ T cells: P1A-specific (TCRP1A) CD8^+ T cells were isolated from spleens and lymph nodes of TCRP1A mice using anti-mouse CD8a (Ly-2) MicroBeads (Miltenyi Biotec). IFNγ secretion assay: CD8^+ T cells were plated at 50,000 cells per well in a 96 U plate with different concentration of guanabenz in full medium supplemented with IL2 and incubated at 37° C. overnight prior to their use in the assay on the next day. On the day of the assay, the culture supernatant was removed from the cells and the cells were washed once with complete medium to remove the drug completely. The target cells L1210-P1A-B7.1 or T2 cells loaded with WT1126-134 peptide were added to the wells at a ratio of 1:1. Control wells containing either only T cells or […] were also included for each plate. The plate was then incubated at 37° C. overnight. At the end of the incubation period the supernatant was collected and the amount of IFNγ was measured by ELISA according to manufacturer's instruction (R&D). T cells were incubated with guanabenz (10, 20, or 40 μM) for 16 h to 24 h as indicated. Mice received a daily intra-peritoneal injection of guanabenz (5 mg/kg) or vehicle (PBS) from the day of randomization (and the day of ACT when applicable) until the day of sacrifice.

TiRP tumor = experiment: TiRP melanoma model with adoptive cell transfer of activated P1A-specific CD8+ T cells; format: in vivo, mouse
From the text: TiRP mice: TiRP mice have been created by crossing Ink4a/Arf^flox/flox mice with mice carrying a transgenic construct controlled by the tyrosinase promoter and driving the expression of H-Ras^12V and Trap1a which encodes a MAGE-type tumor antigen P1A; the promoter is separated from the coding region by a stop cassette made of a floxed self-deleting CreER (Huijbers et al., 2006, Cancer Res 66, 3278-3286). Those mice were backcrossed to a B10.D2 background and bred to homozygosity. TCRP1A mice heterozygous for the H-2Ld/P1A35-43-specific TCR transgene were kept on the B10.D2; Rag1^−/− background (Shanker et al., 2004, J Immunol 172, 5069-5077). All mice used in this study were produced under specific pathogen free (SPF) conditions at the animal facility of the Ludwig Institute for Cancer Research. All the rules concerning animal welfare have been respected according to the 2010/63/EU Directive. All procedures were performed with the approval of the local Animal Ethical Committee, with reference 2015/UCL/MD/15.
A fresh solution of 40H-Tamoxifen was prepared by dissolving 40H-Tamoxifen (Imaginechem) in 100% ethanol and mineral oil (ratio 1:9) followed by 30-min sonication, and injected subcutaneously (2 mg/200 μL per mouse) in the neck area of gender-matched 7 weeks old TiRP mice. Tumor appearance was monitored daily and tumors were measured three times/week. Tumor volume (in mm^3) was calculated by the following formula: Volume=width^2×length/2. Tumor-bearing TiRP mice were randomized based on the tumor size when average volume was 400 mm^3, 500 mm^3 or 1000 mm^3 as indicated.
as §1
For the adoptive cell transfer (ACT), P1A-specific (TCRP1A) CD8^+ T cells were isolated from spleens and lymph nodes of TCRP1A mice as described hereinabove, and stimulated in vitro by co-culture with irradiated (10.000 rads) L1210-P1A-B7.1 cells (Gajewski et al., 1995, J Immunol 154, 5637-5648) at 1:2 ratio (0.5×10^5 CD8^+ T cells and 10^5 L1210-P1A-B7.1 cells per well in 48-well plates) in IMDM (GIBCO) containing 10% fetal bovine serum supplemented with L-arginine (0.55 mM, Merck), L-asparagine (0.24 mM, Merck), glutamine (1.5 mM, Merck), betamercaptoethanol (50 μM, Sigma), 50 UmL^−1 penicillin and […] (Life Technologies). Four days later, TCRP1A CD8^+ T cells were purified on a Lymphoprep gradient (StemCell) and 10^7 living cells were injected intravenously in 200 μL PBS in TiRP-tumor bearing mice on the day of randomization.
Mice received a daily intra-peritoneal injection of alprenolol (5 mg/kg) or vehicle (PBS) from the day of ACT until the day of sacrifice.
T cells were incubated with sunitinib (0.1, 0.3, 0.8, 2.5 or 4 μM) for 16 h as indicated. Mice received a daily dose of sunitinib (20 mg/kg) or vehicle (PBS) by oral gavage from the day of ACT until the day of sacrifice.

**Q.** `NC(N)=N/N=C/c1c(Cl)cccc1Cl` [guanabenz, 2-[(E)-(2,6-dichlorophenyl)methylideneamino]guanidine] was tested. Which “T cell degranulation (FACS detection of CD107a)” value ([1]; guanabenz 20 μM, vs control, FIG. 12A) did it give?
**A.** did significantly increase

**Q.** And the “T cell degranulation (FACS detection of CD107a)” value ([1]; guanabenz 10, 20 or 40 μM, co-culture with L1210-P1A-B7.1 target cells, FIG. 1A)?
**A.** increased

**Q.** What about the “secretion of IFNγ (ELISA)” value [2] of the same compound?
**A.** increased

**Q.** What about the tumor growth (TiRP tumor; guanabenz 5 mg/kg i.p. daily with ACT of 10 million activated T cells, day 0 to day 18, vs ACT alone, FIG. 5A) of the same compound?
**A.** significantly decreased

**Q.** And the “tumor infiltration of CD8+ T cells (P1A tetramer+ CD8+ T cells among total living cells and among total CD8+ T cells)” value (TiRP tumor; guanabenz 5 mg/kg i.p. daily with ACT, 10 days after ACT, FIG. 5C-D)?
**A.** increased

**Q.** And the “apoptosis of the adoptively transferred CD8+ T cells” value (TiRP tumor; guanabenz 5 mg/kg i.p. daily with ACT, 10 days after ACT, FIG. 5E)?
**A.** reduced

**Q.** And the “percentage of CD69+ P1A-specific CD8+ T cells (T cell activation marker)” value (TiRP tumor; guanabenz 5 mg/kg i.p. daily with ACT, 10 days after ACT, FIG. 5F)?
**A.** increased percentage

**Q.** What about the “tumor weight on the day of sacrifice” value (TiRP tumor; guanabenz 5 mg/kg i.p. daily with ACT, day 18, vs ACT alone, FIG. 5B) of the same compound?
**A.** significantly decreased

— US20210353749A1, “GUANABENZ AS AN ADJUVANT FOR IMMUNOTHERAPY” (UNIVERSITÉ CATHOLIQUE DE LOUVAIN, priority 2018, published 2021)
